# Key:
# [1] = tested on: African bean aphid (Aphis craccivora); test: Example B21: insecticide seed treatment of sugarbeet seeds, reduction of aphids; assay type: in vivo; conditions: infested after 14 days, counted 7 days after infestation
# Description: Insecticide Seed Treatment Sugarbeet seeds are treated with test compounds at various rates (mg a.i./seed). The seeds are sown into pots filled with soil. After placing the seeds on the soil surface they are further covered with soil. Before and during the bioassays, the plants are grown under optimal greenhouse conditions. After 14 days, the plants are infested with African bean aphid (Aphis craccivora) by placing one infested pea seedling containing approximately 150 aphids of a population of mixed developmental stages onto each plant. Seven days after infestation, the number of aphids is counted per plant. Each treatment group is replicated 10 times. Each replicate contains 1 plant. In this test, compounds listed in Tables A, B, C, D, E and F above show good activity.
# [2] = tested on: Tetranychus urticae (two-spotted spider mite); test: Example B20: comparison with state of the art, Tetranychus urticae, feeding/residual contact activity, preventive; assay type: in vivo; conditions: for Death rate (%) after 8 days: bean leaf discs, mixed population, preventive
# Text: Activity Against Tetranychus urticae (Two-Spotted Spider Mite)
# (Mixed Population, Feeding/Residual Contact Activity, Preventive)
# Bean leaf discs on agar in 24-well microtiter plates are sprayed with test solutions. […] 8 days later, discs are checked for egg mortality, larval mortality, and adult mortality.
# [3] = tested on: Myzus persicae (green peach aphid); test: Example B19: comparison with state of the art, Myzus persicae, systemic/feeding activity, curative; assay type: in vivo; conditions: for Death rate (%) after 6 days (systemic action): pea seedling roots in test solution, curative
# [4] = tested on: Thrips tabaci (onion thrips); test: Example B18: comparison with state of the art, Thrips tabaci, feeding/residual contact activity, preventive; assay type: in vivo; conditions: for Death rate (%) after 6 days: sunflower leaf discs, mixed population, preventive
# [5] = tested on: Diabrotica balteata (corn root worm); test: Example B17: comparison with state of the art, Diabrotica balteata, larvicide, growth regulation; assay type: in vivo; conditions: for Inhibition of growth (%) after 5 dsys: artificial diet MTP, L2 larvae
# Description: After drying, the MTP's are infested with larvae (L2)(6-10 per well). After an incubation period of 5 days, samples are checked for growth regulation.
# [6] = tested on: Myzus persicae (green peach aphid); test: Example B16: comparison with state of the art, Myzus persicae, feeding/residual contact activity, preventive; assay type: in vivo; conditions: for Death rate (%) after 6 days: sunflower leaf discs, mixed population, preventive
smiles,measurement,setting,value
C=CCOC(=O)OC1=C(c2cc(C)ccc2C)C(=O)NC12CCN(OC)CC2 [Compound A5],"Efficacy, % (reduction of aphids compared to untreated control plants)",[1]; 0.03 mg a.i./seed,37%
same,"Efficacy, % (reduction of aphids compared to untreated control plants)",[1]; 0.1 mg a.i./seed,97%
same,"Efficacy, % (reduction of aphids compared to untreated control plants)",[1]; 0.3 mg a.i./seed,99%
same,"Efficacy, % (reduction of aphids compared to untreated control plants)",[1]; 0.6 mg a.i./seed,100%
CON1CCC2(CC1)NC(=O)C(c1cc(C)ccc1C)=C2OC(=O)C(C)(C)C [Compound A9],Death rate (%) after 8 days,[2]; 12.5 ppm,50%
same,Death rate (%) after 8 days,[2]; 50 ppm,80%
same,Death rate (%) after 8 days,[2]; 200 ppm,80%
same,insecticidal action compared with the compound of the state of the art at low application rates,"[2]; low application rates (50 and 12.5 ppm), vs compound I-1-b-20 of WO1998/05638",far superior
same,insecticidal action compared with the compound from the state of the art,"[2]; vs compound I-1-b-20 of WO1998/05638, Table B20",substantially better insecticidal action
same,Death rate (%) after 6 days (systemic action),[3]; 50 ppm,50%
same,Death rate (%) after 6 days (systemic action),[3]; 200 ppm,80%
same,insecticidal action compared with the compound from the state of the art,"[3]; vs compound I-1-b-20 of WO1998/05638, Table B19",substantially better insecticidal action
"CON1CCC2(CC1)NC(=O)C(c1cc(C)ccc1C)=C2O [Compound C1, 3-(2,5-dimethyl-phenyl)-4-hydroxy-8-methoxy-1,8-diaza-spiro[4.5]dec-3-en-2-one]","Efficacy, % (reduction of aphids compared to untreated control plants)",[1]; 0.03 mg a.i./seed,65%
same,"Efficacy, % (reduction of aphids compared to untreated control plants)",[1]; 0.1 mg a.i./seed,96%
same,"Efficacy, % (reduction of aphids compared to untreated control plants)",[1]; 0.3 mg a.i./seed,99%
same,"Efficacy, % (reduction of aphids compared to untreated control plants)",[1]; 0.6 mg a.i./seed,99%
CON1CCC2(CC1)NC(=O)C(c1c(C)cc(C)cc1C)=C2O [Compound C2],Death rate (%) after 6 days,[4]; 12.5 ppm,90%
same,Death rate (%) after 6 days,[4]; 50 ppm,100%
same,Death rate (%) after 6 days,[4]; 200 ppm,100%
same,insecticidal action compared with the compound from the state of the art,"[4]; vs compound Ia-32 of EP596298, Table B18",substantially better insecticidal action
CON1CCC2(CC1)NC(=O)C(c1cc(-c3ccc(Cl)cc3)ccc1C)=C2O [Compound C6],Inhibition of growth (%) after 5 dsys,[5]; 50 ppm,50%
same,Inhibition of growth (%) after 5 dsys,[5]; 200 ppm,75%
same,insecticidal action compared with the compound from the state of the art,"[5]; vs compound 1-1-a-16 of WO1999/48869, Table B17",substantially better insecticidal action
same,Death rate (%) after 6 days,[6]; 12.5 ppm,25%
same,Death rate (%) after 6 days,[6]; 50 ppm,90%
same,insecticidal action compared with the compound from the state of the art,"[6]; vs compound 1-1-a-16 of WO1999/48869, Table B16",substantially better insecticidal action
"CON1CCC2(CC1)NC(=O)C(c1cc(Br)c(F)cc1C)=C2O [Compound C19, 3-(5-Bromo-4-fluoro-2-methyl-phenyl)-4-hydroxy-8-methoxy-1,8-diaza-spiro[4.5]dec-3-en-2-one]",melting point,,229 to 230 °C
COC1CCC2(CC1)NC(=O)C(c1cc(-c3ccc(Cl)cc3)ccc1C)=C2O (centres unmarked) [Compound I-1-a-16],Inhibition of growth (%) after 5 dsys,[5]; 50 ppm,0%
same,Inhibition of growth (%) after 5 dsys,[5]; 200 ppm,0%
same,Death rate (%) after 6 days,[6]; 12.5 ppm,0%
same,Death rate (%) after 6 days,[6]; 50 ppm,50%
"CO[C@H]1CC[C@]2(CC1)NC(=O)C(c1cc(C)ccc1C)=C2OC(=O)C(C)(C)C [Compound I-1-b-20, reference compound]",Death rate (%) after 8 days,[2]; 12.5 ppm,0%
same,Death rate (%) after 8 days,[2]; 50 ppm,0%
same,Death rate (%) after 8 days,[2]; 200 ppm,50%
same,Death rate (%) after 6 days (systemic action),[3]; 200 ppm,0%
"CO[C@H]1CC[C@]2(CC1)NC(=O)C(c1c(C)cc(C)cc1C)=C2O [Ia-32, reference compound]",Death rate (%) after 6 days,[4]; 12.5 ppm,25%
same,Death rate (%) after 6 days,[4]; 50 ppm,25%
same,Death rate (%) after 6 days,[4]; 200 ppm,25%

# Reference: patent US8415369B2, “Spiroheterocyclic pyrrolidine dione derivatives useful as pesticides” (Syngenta Crop Protection LLC, priority 2007, dated 2013)
